From US8227203B2, “Method for testing or screening protein synthesis inhibitors” (The Trustees of the University of Pennsylvania, priority 2007, dated 2012)

What was measured:
HeLa PV cells = assay: SMN sub-cellular localization by indirect immunofluorescence (anti-SMN 2B1); type: cell-based; settings: for redistribution of SMN from the cytoplasm to the nucleus (nuclear accumulation of SMN): HeLa cells, short treatment (2-6 hours), immunofluorescence; for nuclear translocation of SMN at longer times: longer times (>24 hr), FIG. 5a; for completeness of SMN nuclear accumulation compared with CHX: ER stress inducers, FIG. 6B
Method: (§1) HeLa PV were cultured in Dulbecco's modified Eagle's medium (Invitrogen) supplemented with 10% fetal bovine serum (Invitrogen). For screening, cells were seeded onto 384-well plates or, for specific experiments, on glass coverslips the day before treatment. Compounds were added directly into the culture medium to the indicated concentration and the cells were then maintained at 37° C. in a 5% CO2 humidified atmosphere for the duration of the treatment. Dispensing of compounds and other automatic liquid handling steps were performed with a Beckman FX multi-channel system equipped with Hudson Crane robotic systems.
(§2) The following mouse monoclonal antibodies were used for indirect immunofluorescence: 2B1 (anti-SMN), 2E17 (anti-Gemin2), 12H12 (anti-Gemin3), 10G11 (anti-Gemin5), 6E2 (anti-Gemin7), 10E10 (anti-PABP), 6BG10 (anti-FXR1), Y12 (anti-Sm) and 9H10 (anti-hnRNP A1). An affinity-purified rabbit polyclonal antibody was used to detect Gemin6.
(§3) Indirect immunofluorescence on HeLa PV cells was performed as follows: HeLa cells, plated on glass coverslips, were briefly washed with PBS, fixed in 2% formaldehyde/PBS for 20 minutes at room temperature, permeabilized in 0.5% Triton X-100/PBS for 5 min at room temperature. Cells were blocked in 3% bovine serum albumin for 1 hour at room temperature. Double-label immunofluorescence experiments were performed by separate sequential incubations of each primary antibody, diluted in PBS containing 3% bovine serum albumin, followed by the specific secondary coupled to fluorescein isothiocyanate or TXRD. All incubations were at room temperature for 1 hour. Indirect epifluorescence microscopy was performed with a Nikon Eclipse E800 microscope. Digital images were collected with a Cook Sensicam high performance camera and processed with the IP laboratory software. Processing of samples for immunofluorescence microscopy on cells cultured in 384-well plates was automated and performed with the aid of microplate washers (ELX405, Bio-Tek) in a similar manner to that previously used for individual samples on glass slides. The cells were also stained with DAPI to allow definition of the nucleus in each cell. Digital images were acquired with an automated microscopy and analysis system (IN Cell Analyzer 1000, GE Healthcare). Images were analyzed using automated algorithms with parameters set to calculate mean pixel intensity in each nucleus (defined by DAPI staining and acquired in a separate channel), cytoplasm, and total cell, as well as the relevant calculated ratios of these values.
Based on the results obtained in Example 1, a library of ˜5,000 biologically active small molecules was screened on HeLa cells in 384-well plates. Each well was incubated with a different compound (at 10 μM) and the cells were processed for indirect immunofluorescence. Digital images were collected from six fields in each well and analyzed using imaging algorithms for multiple parameters including relative nuclear and cytoplasmic intensities, and number, size and signal intensity of Gems. DAPI-stained images were collected in a separate channel to define the boundary of each nucleus. Images of individual fields in wells were flagged by the software as showing a significant change in SMN sub-cellular localization. These individual wells were examined directly, and active compounds were re-tested for verification (FIG. 2).

[1] = test system: Hela cells with reduced SMN by RNAi; assay: SMN localization in HeLa cells with reduced SMN by RNAi (shRNA targeting SMN); type: cell-based; settings: vs cells expressing non-targeting shRNA; 10 μM CHX 6 hours (FIG. 7)
Method: as §3, with “The cells were also stained with DAPI to allow definition of the nucleus in each cell. Digital images were acquired with an automated microscopy and analysis system (IN Cell Analyzer 1000, GE Healthcare).” left out

HeLa cells [2] = assay: Localization of other nuclear and cytoplasmic proteins (hnRNP A1, PABP, FXR1, snRNPs) by immunostaining; type: cell-based; settings: 6 hrs of 10 μM CHX (FIG. 3c)
Method: as §2
Indirect immunofluorescence on HeLa PV cells was performed as follows: HeLa cells, plated on glass coverslips, were briefly washed with PBS, fixed in 2% formaldehyde/PBS for 20 minutes at room temperature, permeabilized in 0.5% Triton X-100/PBS for 5 min at room temperature. Cells were blocked in 3% bovine serum albumin for 1 hour at room temperature. Double-label immunofluorescence experiments were performed by separate sequential incubations of each primary antibody, diluted in PBS containing 3% bovine serum albumin, followed by the specific secondary coupled to fluorescein isothiocyanate or TXRD. All incubations were at room temperature for 1 hour. Indirect epifluorescence microscopy was performed with a Nikon Eclipse E800 microscope. […] Images were analyzed using automated algorithms with parameters set to calculate mean pixel intensity in each nucleus (defined by DAPI staining and acquired in a separate channel), cytoplasm, and total cell, as well as the relevant calculated ratios of these values.

HeLa cells [3] = assay: Sub-cellular localization of Gemins by immunostaining; type: cell-based
Method: as §1, with “systems. […]” for “systems.”
Indirect immunofluorescence on HeLa PV cells was performed as follows: HeLa cells, plated on glass coverslips, were briefly washed with PBS, fixed in 2% formaldehyde/PBS for 20 minutes at room temperature, permeabilized in 0.5% Triton X-100/PBS for 5 min at room temperature. […] Images were analyzed using automated algorithms with parameters set to calculate mean pixel intensity in each nucleus (defined by DAPI staining and acquired in a separate channel), cytoplasm, and total cell, as well as the relevant calculated ratios of these values. […]

HeLa cells [4] = assay: Cell viability / toxicity of treated cells; settings: overnight treatment with 10 μM CHX

Q: `CCOC(=O)CN1C(=O)CC(C[C@@H](O)[C@@H]2C[C@@H](C)C[C@H](C)C2=O)CC1=O` [cycloheximide-N-ethylethanoate] was tested. Which “redistribution of SMN from the cytoplasm to the nucleus (nuclear accumulation of SMN)” value (shortened to “redistribution of SMN from the cytoplasm”) (HeLa PV cells) did it give?
A: did not show any effect

Q: How did the “SMN nuclear accumulation in cells with reduced SMN” value [1] turn out when `C[C@@H]1C[C@@H]([C@H](O)CC2CC(=O)NC(=O)C2)C(=O)[C@@H](C)C1` [cycloheximide] was run?
A: showed a similar effect

Q: What about the “localization of hnRNP A1, PABP, FXR1 and snRNPs” value (HeLa cells [2]) of the same molecule?
A: not significantly affected

Q: What about the “relation of nuclear accumulation of SMN to inhibition of protein synthesis” value (HeLa PV cells) of the same molecule?
A: proportional to the extent of inhibition of protein synthesis

Q: And the “concentration dependence of SMN redistribution from the cytoplasm to the nucleus” value (HeLa PV cells; 0.1-40 μM (FIG. 3a, b))?
A: concentration-dependent

Q: What about the “treatment time after which the effect on SMN redistribution was evident” value (HeLa PV cells; HeLa PV cells, 10 μM CHX (FIG. 3a)) of the same molecule?
A: 2 h

Q: What about the “redistribution of SMN from the cytoplasm” value (HeLa PV cells) of the same molecule?
A: most striking accumulation of SMN in the nucleus

Q: And the “SMN remaining in the cytoplasm” value (HeLa PV cells; after 8 or more hours of treatment)?
A: little SMN detected in the cytoplasm

Q: What about the “reversibility of SMN nuclear accumulation” value (HeLa PV cells; cells washed and placed in fresh medium devoid of cycloheximide) of the same molecule?
A: reversible

Q: And the “SMN localization after overnight treatment” value (HeLa PV cells; overnight treatment with 10 μM CHX)?
A: all of the SMN was localized to the nucleus

Q: And the “nuclear accumulation of SMN complex components (Gemins)” value (HeLa cells [3]; 6 hours 10 μM CHX (FIG. 4))?
A: causes most of the components of the SMN complex to accumulate in the nucleus

Q: What about the cell viability (HeLa cells [4]) of the same molecule?
A: no reduction in cell viability

Q: For `CC[C@H]1CN2CCc3cc(OC)c(OC)cc3[C@@H]2C[C@@H]1C[C@H]1NCCc2cc(OC)c(OC)cc21` [emetine], which “SMN localization (FIG. 6b)” value (HeLa PV cells; 10 μM) is on record?
A: nuclear accumulation

Q: And the “redistribution of SMN from the cytoplasm” value (HeLa PV cells)?
A: showed the same effect as cycloheximide

Q: Which results are given for `COc1ccc(C[C@H](N)C(=O)N[C@H]2[C@@H](O)[C@H](n3cnc4c(N(C)C)ncnc43)O[C@@H]2CO)cc1` [puromycin]?
A: SMN localization (FIG. 6b) (HeLa PV cells; 10 μM): nuclear accumulation; redistribution of SMN from the cytoplasm to the nucleus (nuclear accumulation of SMN) (HeLa PV cells): showed the same effect as cycloheximide

Q: `O=C(CCCCCN1C(=O)c2cccc3cccc(c23)C1=O)NO` [scriptaid] was tested. Which “nuclear translocation of SMN at longer times” value (“nuclear translocation of SMN” below) (HeLa PV cells) did it give?
A: caused the same effect as protein synthesis inhibitors

Q: With `C/C=C(/C)C(=O)O[C@H]1C(C)=C2[C@H]([C@@H]1OC(=O)CCCCCCC)[C@@](C)(OC(C)=O)C[C@H](OC(=O)CCC)[C@@]1(O)[C@H]2OC(=O)[C@@]1(C)O` [thapsigargin] as the molecule, how does the “SMN localization (FIG. 6b)” value (HeLa PV cells; 10 μM) read?
A: nuclear accumulation

Q: What about the “completeness of SMN nuclear accumulation compared with CHX” value (HeLa PV cells) of the same molecule?
A: not as complete as that seen after treatment with high levels of CHX

Q: What about the “redistribution of SMN from the cytoplasm” value (HeLa PV cells) of the same molecule?
A: caused SMN to accumulate in the nucleus

Q: With `CC(/C=C/C(=O)NO)=C\[C@@H](C)C(=O)c1ccc(N(C)C)cc1` [trichostatin A] as the molecule, how does the “nuclear translocation of SMN” value (HeLa PV cells) read?
A: caused the same effect as protein synthesis inhibitors

Q: How did the “concentration dependence of nuclear localization of SMN” value (HeLa PV cells; 2-10 mM VPA (FIG. 5b)) turn out when `CCCC(CCC)C(=O)O` [valproic acid] was run?
A: clear concentration dependence effect

Q: And the “nuclear translocation of SMN” value (HeLa PV cells)?
A: caused the same effect as protein synthesis inhibitors

Q: What about the “localization of Gemin3 and Gemin5” value (HeLa cells [3]; 24 hour treatment, 10 mM VPA (FIG. 5c)) of the same molecule?
A: remain predominantly cytoplasmic

Q: With tunicamycin as the molecule, how does the “SMN localization (FIG. 6b)” value (HeLa PV cells; 10 μg/ml) read?
A: nuclear accumulation

Q: What about the “completeness of SMN nuclear accumulation compared with CHX” value (HeLa PV cells) of the same molecule?
A: not as complete as that seen after treatment with high levels of CHX

Q: What about the “redistribution of SMN from the cytoplasm” value (HeLa PV cells) of the same molecule?
A: caused SMN to accumulate in the nucleus
